Data from patent publication US12083131B2 (priority 2014, dated 2024).

Legend:
essential tremor = assay: Clinical trial of allopregnanolone injection in essential tremor (Stage One placebo-controlled crossover, low-dose; Stage Two open-label, high-dose)
TBI = assay: Treatment of subjects with TBI at the starting dose; conditions: starting dose (29 μg/kg/hr), 11 subjects with TBI
SRSE = assay: Continuous infusion allopregnanolone under emergency-use INDs for SRSE
[1] = Other clinical studies and experience to date with intravenous allopregnanolone; conditions: all AEs reported to date
[2] = test system: severe postpartum depression (PPD); assay: Clinical study of allopregnanolone injection in adult female patients with severe postpartum depression
[3] = in vivo; cited from earlier work

| Compound | Tolerability of the maintenance dose (essential tremor; 86 mcg/kg/hour, Stage One) | Adverse events reported (essential tremor; Stage One, arms not distinguished, one case each of phlebitis, somnolence, abnormal dreams, back pain, nasal congestion, headache, fatigue, nausea, two cases of dizziness) | Sedation scores versus placebo (essential tremor; conclusion of Stage One) | Measures of activity in essential tremor (accelerometer and TETRAS scores) versus placebo (essential tremor; conclusion of Stage One, maintenance dose 86 mcg/kg/hour) | SAEs at the starting dose (TBI) | Drug-related SAEs at the target/maximum level of exposure (SRSE; 150 nM exposure, 6 subjects with SRSE, continuous infusion) | Drug-related serious adverse events at maintenance dose (SRSE; 150 mcg/kg/hour, six subjects with SRSE) | AEs reported to date [1] | Response (relief from symptoms) after treatment ([2]; after treatment) | Clinical Global Impression-Improvement (CGI-I) scale ([2]; all four patients) | Remission as measured by HAM-D during the treatment period ([2]; all four patients) | Tolerability ([2]; all patients, on therapy or during the 30-day follow-up period) | Time to improvement of symptoms after treatment ([2]; four patients (e.g., within 24 hours, within 12 hours after treatment)) | Mean HAM-D score at baseline ([2]; four patients, baseline, >24.0 is severe) | Mean HAM-D score by the end of the treatment period ([2]; four patients, end of treatment period, below 7.0 is symptom-free) | Time to improvement in depression after administration ([2]; four women with severe PPD) [h] | Improvement in depression, number of women ([2]; women with severe PPD, intravenous administration) | Exposure of breast-feeding infant [3] |
| --- | --- | --- | --- | --- | --- | --- | --- | --- | --- | --- | --- | --- | --- | --- | --- | --- | --- | --- |
| CC(=O)[C@H]1CC[C@H]2[C@@H]3CC[C@H]4C[C@H](O)CC[C@]4(C)[C@H]3CC[C@]12C [allopregnanolone, 3 alpha-hydroxy-5 alpha-pregnan-20-one] | good tolerability | 10 | no clear difference | no clear difference | no SAEs reported | no drug-related SAEs reported | without any drug-related serious adverse events | mild and non-serious | sustained | consistent improvement | rapidly achieved remission | well-tolerated | one | 26.5 | 1.8 | ≤ 24 | four of four | – |
| Cc1ncc2n1-c1ccc(Cl)cc1C(c1ccccc1F)=NC2 [midazolam] | – | – | – | – | – | – | – | – | – | – | – | – | – | – | – | – | – | less than 0.1 % of the maternal dose |
| CC(C)c1cccc(C(C)C)c1O [propofol] | – | – | – | – | – | – | – | – | – | – | – | – | – | – | – | – | – | less than 0.1 % of the maternal dose |
